According to US20260365628A1, “SUBSTITUTED 3,4-DIHYDROQUINOLINONE INHIBITORS OF TSHR” (Septerna, Inc., priority 2022, published 2026):

What follows are molecules tested against T1, hTSHR (Homo sapiens, UniProt P16473) (assay: hTSHR TR-FRET cAMP Assay (inhibition of M22-stimulated cAMP production)). Conditions: Expi293F Inducible cells stably expressing hTSHR; cAMP HTRF; stimulated with EC80 of anti-TSHR antibody M22; 15 min compound preincubation, 30 min at 37° C.; read-out: Activity (IC50 bins).
T1 construct: expressed in transfected cells
T1 sequence (P16473 21-764): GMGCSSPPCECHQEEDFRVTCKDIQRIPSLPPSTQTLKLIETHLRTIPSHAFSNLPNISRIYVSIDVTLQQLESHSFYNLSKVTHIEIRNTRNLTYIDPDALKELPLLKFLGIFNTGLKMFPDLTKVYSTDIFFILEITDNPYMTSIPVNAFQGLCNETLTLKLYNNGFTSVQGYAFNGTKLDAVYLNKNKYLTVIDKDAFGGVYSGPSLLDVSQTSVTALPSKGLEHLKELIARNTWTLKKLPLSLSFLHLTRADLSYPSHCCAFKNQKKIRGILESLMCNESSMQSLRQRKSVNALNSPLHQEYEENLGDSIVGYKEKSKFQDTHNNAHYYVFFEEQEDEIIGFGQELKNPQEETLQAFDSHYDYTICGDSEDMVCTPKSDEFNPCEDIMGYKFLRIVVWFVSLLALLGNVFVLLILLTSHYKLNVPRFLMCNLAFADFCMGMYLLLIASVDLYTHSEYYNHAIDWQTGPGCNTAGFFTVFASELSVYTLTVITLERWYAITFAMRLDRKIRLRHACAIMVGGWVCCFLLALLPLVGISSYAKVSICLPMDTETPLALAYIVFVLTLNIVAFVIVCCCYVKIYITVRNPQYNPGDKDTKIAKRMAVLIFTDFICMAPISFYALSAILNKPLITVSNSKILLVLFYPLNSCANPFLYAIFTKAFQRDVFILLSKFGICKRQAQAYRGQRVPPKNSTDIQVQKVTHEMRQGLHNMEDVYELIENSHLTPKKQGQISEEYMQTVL
Assay type: cell-based
How it was run: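 Readout was a cAMP HTRF ratio of 655/620 nm after lysis, scaled between the EC80 M22 signal (0% inhibition) and no-agonist vehicle (100%). Frozen induced Expi293F-hTSHR cells saw test compounds (0.5% DMSO) for 15 min at 37 °C before 30 min of M22 stimulation at EC80.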

IC50 | Compound
100 to 1000 nM | C[C@@H](c1cccc(OC(F)(F)F)c1)n1c(=O)cnc2cc(NC(=O)NC3(C(F)(F)F)CCC3)ccc21 [Example 214, (S)-1-(2-oxo-1-(1-(3-(trifluoromethoxy)phenyl)ethyl)-1,2-dihydroquinoxalin-6-yl)-3-(1-(trifluoromethyl)cyclobutyl)urea]
100 to 1000 nM | COCC1(NC(=O)Nc2ccc3c(c2)ncc(=O)n3[C@@H](C)c2cccc(OC(F)(F)F)c2)CCC1 [Example 215, (S)-1-(1-(methoxymethyl)cyclobutyl)-3-(2-oxo-1-(1-(3-(tri-fluoromethoxy)phenyl)ethyl)-1,2-dihydroquinoxalin-6-yl)urea]
100 to 1000 nM | C[C@@H](c1cccc(OC(F)(F)F)c1)n1c(=O)cnc2cc(NC(=O)NC3CCC(F)(F)CC3)ccc21 [Example 216]
100 to 1000 nM | C[C@@H](c1cccc(OC(F)(F)F)c1)n1c(=O)cnc2cc(NC(=O)NC3(C(F)(F)F)CCCC3)ccc21 [Example 217]
100 to 1000 nM | C[C@@H](c1cccc(OC(F)(F)F)c1)n1c(=O)cnc2c(Cl)c(NC(=O)NC(C)(C)C)ccc21 [Example 218, (S)-1-(tert-butyl)-3-(5-chloro-2-oxo-1-(1-(3-(trifluoromethoxy)phenyl)ethyl)-1,2-dihydroquinoxalin-6-yl)urea]
100 to 1000 nM | C[C@@H](c1cccc(OC(F)(F)F)c1)n1c(=O)cnc2cc(NC(=O)NC3(C)CC(F)(F)C3)ccc21 [Example 221, (S)-1-(3,3-difluoro-1-methylcyclobuty 1)-3-(2-oxo-1-(1-(3-(trifluoromethoxy)phenyl)ethyl)-1,2-dihydroquinoxalin-6-yl)urea]
100 to 1000 nM | C[C@@H](c1cccc(OC(F)(F)F)c1)n1c(=O)cnc2cc(NC(=O)NC3(C(F)(F)F)COC3)ccc21 [Example 222]
100 to 1000 nM | C[C@@H](c1cccc(OC(F)(F)F)c1)n1c(=O)cnc2cc(NC(=O)N[C@H]3C[C@H](C(F)(F)F)C3)ccc21 [Example 223, 1-(2-oxo-1-((S)-1-(3-(trifluoromethoxy)phenyl)ethyl)-1,2-dihydroquinoxalin-6-yl)-3-((1r,3R)-3-(trifluoromethyl)cyclobutyl)urea]
100 to 1000 nM | C[C@@H](c1cccc(OC(F)(F)F)c1)n1c(=O)cnc2cc(NC(=O)N[C@H]3C[C@@H](C(F)(F)F)C3)ccc21 [Example 224, 1-(2-oxo-1-((S)-1-(3-(trifluoromethoxy)phenyl)ethyl)-1,2-dihydroquinoxalin-6-yl)-3-((1s,3S)-3-(trifluoromethyl)cyclobutyl)urea]
100 to 1000 nM | C[C@@H](c1cccc(OC(F)(F)F)c1)n1c(=O)cnc2cc(NC(=O)NC3(C(F)(F)F)CC(F)(F)C3)ccc21 [Example 225, (S)-1-(3,3-difluoro-1-(trifluoromethyl)cyclobutyl)-3-(2-oxo-1-(1-(3-(trifluoromethoxy)phenyl)ethyl)-1,2-dihydroquinoxalin-6-yl)urea]
< 100 nM | C[C@H]1Oc2cc(NC(=O)NC3(C)CCC3)ccc2N(Cc2cccc(C(F)(F)F)n2)C1=O [Example 226, 1-[(2R)-2-methyl-3-oxo-4-{[6-(trifluoromethyl)pyridin-2-yl]methyl}-2H-1,4-benzoxazin-7-yl]-3-(1-methylcyclobutyl)urea]
< 100 nM | C[C@H]1Oc2cc(NC(=O)NC3(C)CCCC3)ccc2N(Cc2cccc(C(F)(F)F)n2)C1=O [Example 227, (R)-1-(2-methyl-3-oxo-4-((6-(trifluoromethyl)pyridin-2-yl)methyl)-3,4-dihydro-2H-benzo[b][1,4]oxazin-7-yl)-3-(1-methylcyclopentyl) urea]
< 100 nM | C[C@H]1Oc2cc(NC(=O)NC3CCCCC3)ccc2N(Cc2cccc(C(F)(F)F)n2)C1=O [Example 228, (R)-1-cyclohexyl-3-(2-methyl-3-oxo-4-((6-(trifluoromethyl)pyridin-2-yl)methyl)-3,4-dihydro-2H-benzo[b][1,4]oxazin-7-yl)urea]
< 100 nM | C[C@H]1Oc2cc(NC(=O)NC3(C)CCCCC3)ccc2N(Cc2cccc(C(F)(F)F)n2)C1=O [Example 229, (R)-1-(2-methyl-3-oxo-4-((6-(trifluoromethyl)pyridin-2-yl)methyl)-3,4-dihydro-2H-benzo[b][1,4]oxazin-7-yl)-3-(1-methylcyclohexyl) urea]
100 to 1000 nM | C[C@H]1Oc2cc(NC(=O)NC3CC4CC4C3)ccc2N(Cc2cccc(C(F)(F)F)n2)C1=O (stereo partly drawn) [Example 230, 1-(bicyclo[3.1.0]hexan-3-yl)-3-((R)-2-methyl-3-oxo-4-((6-(trifluoromethyl)pyridin-2-yl)methyl)-3,4-dihydro-2H-benzo[b][1,4]oxazin-7-yl)urea]

The next lines start with the molecule.

Compound | IC50
O=C(Nc1ccc2c(c1)ncc(=O)n2Cc1ccccc1)NC1CCCC1 [Example 196, 1-(1-benzyl-2-oxo-1,2-dihydroquinoxalin-6-yl)-3-cyclopentylurea] | > 1000 nM
O=C(Nc1ccc2c(c1)ncc(=O)n2Cc1ccccc1)C1CCCC1 [Example 197, N-(1-benzyl-2-oxo-1,2 dihydroquinoxalin-6-yl)cyclopentanecar-boxamide] | > 1000 nM
CC(C)(NC(=O)Nc1ccc2c(c1)ncc(=O)n2Cc1ccccc1)C(F)(F)F [Example 198, 1-(1-benzyl-2-oxo-1,2-dihydroquinoxalin-6-yl)-3-(1,1,1-trifluoro-2-methylpropan-2-yl)urea] | 100 to 1000 nM
CC(C)(NC(=O)Nc1ccc2c(c1)ncc(=O)n2Cc1ccccc1)C(F)F [Example 199, 1-(1-benzyl-2-oxo-1,2-dihydroquinoxalin-6-yl)-3-(1,1-difluoro-2-methylpropan-2-yl)urea] | 100 to 1000 nM
C[C@@H](c1cccc(OC(F)(F)F)c1)n1c(=O)cnc2cc(NC(=O)NC3(C)CCC3)ccc21 [Example 200, (S)-1-(1-methylcyclobutyl)-3-(2-oxo-1-(1-(3-(trifluoromethoxy)phenyl)ethyl)-1,2-dihydroquinoxalin-6-yl)urea] | < 100 nM
C[C@@H](c1cccc(OC(F)(F)F)c1)n1c(=O)cnc2cc(NC(=O)NCC(C)(C)C)ccc21 [Example 201, (S)-1-neopentyl-3-(2-oxo-1-(1-(3-(trifluoromethoxy)phenyl)ethyl)-1,2-dihydroquinoxalin-6-yl)urea] | 100 to 1000 nM
C[C@@H](c1cccc(OC(F)(F)F)c1)n1c(=O)cnc2cc(NC(=O)CCc3cccc(C(F)(F)F)c3)ccc21 [Example 202, (S)-N-(2-oxo-1-(1-(3-(trifluoromethoxy)phenyl)ethyl)-1,2-dihydroquinoxalin-6-yl)-3-(3-(trifluoromethyl)phenyl) propanamide] | < 100 nM
C[C@@H](c1cccc(OC(F)(F)F)c1)n1c(=O)cnc2cc(NC(=O)NC3(C)CCCC3)ccc21 [Example 203, (S)-1-(1-methylcyclopentyl)-3-(2-oxo-1-(1-(3-(trifluoromethoxy)phenyl)ethyl)-1,2-dihydroquinoxalin-6-yl)urea] | 100 to 1000 nM
C[C@@H](c1cccc(OC(F)(F)F)c1)n1c(=O)cnc2cc(NC(=O)NC3CC(F)(F)C3)ccc21 [Example 204, (S)-1-(3,3-difluorocyclobutyl)-3-(2-oxo-1-(1-(3-(trifluoromethoxy)phenyl)ethyl)-1,2-dihydroquinoxalin-6-yl)urea] | 100 to 1000 nM
C[C@@H](c1cccc(OC(F)(F)F)c1)n1c(=O)cnc2cc(NC(=O)NC3CCC3)ccc21 [Example 205, (S)-1-cyclobutyl-3-(2-oxo-1-(1-(3-(trifluoromethoxy)phenyl)ethyl)-1,2-dihydroquinoxalin-6-yl)urea] | 100 to 1000 nM
C[C@@H](c1cccc(OC(F)(F)F)c1)n1c(=O)cnc2cc(NC(=O)NC34CC(C3)C4)ccc21 [Example 206, (S)-1-(bicycl[1.1.1]pentan-1-yl)-3-(2-oxo-1-(1-(3-(trifluoromethoxy)phenyl)ethyl)-1,2-dihydroquinoxalin-6-yl)urea] | 100 to 1000 nM
CC(C)CCNC(=O)Nc1ccc2c(c1)ncc(=O)n2[C@@H](C)c1cccc(OC(F)(F)F)c1 [Example 207, (S)-1-isopentyl-3-(2-oxo-1-(1-(3-(trifluoromethoxy)phenyl)ethyl)-1,2-dihydroquinoxalin-6-yl)urea] | 100 to 1000 nM
C[C@@H](c1cccc(OC(F)(F)F)c1)n1c(=O)cnc2cc(NC(=O)NC(C)(C)C(F)(F)F)ccc21 [Example 208, (S)-1-(2-oxo-1-(1-(3-(trifluoromethoxy)phenyl)ethyl)-1,2-dihydroquinoxalin-6-yl)-3-(1,1,1-trifluoro-2-methylpropan-2-yl)urea] | 100 to 1000 nM
Cc1c(NC(=O)NC(C)(C)C)ccc2c1ncc(=O)n2[C@@H](C)c1cccc(OC(F)(F)F)c1 [Example 209, (S)-1-(tert-butyl)-3-(5-methyl-2-oxo-1-(1-(3-(trifluoromethoxy)phenyl)ethyl)-1,2-dihydroquinoxalin-6-yl)urea] | 100 to 1000 nM
C[C@@H](c1cccc(OC(F)(F)F)c1)n1c(=O)cnc2cc(NC(=O)NC3(C)CCCCC3)ccc21 [Example 210, (S)-1-(1-methylcyclohexyl)-3-(2-oxo-1-(1-(3-(trifluoromethoxy)phenyl)ethyl)-1,2-dihydroquinoxalin-6-yl)urea] | < 100 nM
C[C@@H](c1cccc(OC(F)(F)F)c1)n1c(=O)cnc2cc(NC(=O)NC34CCC(CC3)C4)ccc21 [Example 211, (S)-1-(bicyclo[2.2.1]heptan-1-yl)-3-(2-oxo-1-(1-(3-(trifluoromethoxy)phenyl)ethyl)-1,2-di-hydroquinoxalin-6-yl)urea] | < 100 nM
C[C@@H](c1cccc(OC(F)(F)F)c1)n1c(=O)cnc2cc(NC(=O)NC3(C)COC3)ccc21 [Example 212] | > 1000 nM
C[C@@H](c1cccc(OC(F)(F)F)c1)n1c(=O)cnc2cc(NC(=O)NC34CCC(C3)C4)ccc21 [Example 213, (S)-1-(bicyclo[2.1.1]hexan-1-yl)-3-(2-oxo-1-(1-(3-(trifluoromethoxy)phenyl)ethyl)-1,2-dihydroquinoxalin-6-yl)urea] | < 100 nM
